Reference: patent US12495798B2, “Nicotinamide compound and herbicidal composition comprising compound” (KOREA RESEARCH INSTITUTE OF CHEMICAL TECHNOLOGY, priority 2019, dated 2025)

What was measured:
Type in all cases: in vivo
[1] = tested on: bindweed; experiment: Herbicidal activity test against upland field weeds (soil treatment test); set-up: key to Soil treatment herbicidal activity, Bindweed: 0 (no control); 100 (complete control); conditions: 50 g ai/ha, scale 0 (no control) to 100 (complete control)
Procedure, shortened: (§1)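 Pre-emergence test: seeds or rootstocks were sown in fertilized sandy loam, and the next day the soil surface was sprayed with compound at 50 or 75 g a.i./ha in 50% acetone/0.1% Tween-20. Plants were grown in a greenhouse (30±5 °C, 14/10 h light/dark), then visually scored 0–100 against untreated at 14 d (21 d if needed).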

[2] = tested on: black nightshade; experiment: Herbicidal activity test against upland field weeds (foliar treatment test); set-up: key to Foliar treatment herbicidal activity, black nightshade: 0 (no control); 100 (complete control); conditions: 50 g ai/ha, scale 0-100
Procedure, shortened: (§2)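 Weeds were raised from seed or rootstocks in horticultural soil in a greenhouse (30±5° C., 14/10 h light/dark), then foliage was hand-sprayed with compound at 50 or 75 g a.i./ha in 50% acetone with 0.1% Tween-20. Control was scored visually 0–100 against untreated plants after 14 days, or 21 if needed.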

[3] = tested on: rice; experiment: Phytotoxicity test for upland field crops (foliar treatment test); set-up: key: 0 (no harm); 9 (complete withered)
Procedure, shortened: (§3)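 Application rate ranged 19˜300 g a.i./ha, delivered as a foliar spray (100 ml/m^2) in 33% acetone with 0.1% Tween-20 to crops raised at 30±5 °C under 14/10 h light/dark. Symptoms were assessed 7 and 14 days post-treatment, extending to 21 days where necessary, using a 0–9 injury grade relative to untreated control.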

[4] = tested on: cotton; experiment: as above; set-up: key: 0 (no harm); 9 (complete withered)
Procedure, shortened: as §3

[5] = tested on: corn; experiment: as above; set-up: key: 0 (no harm); 9 (complete withered)
Procedure, shortened: as §3

[6] = tested on: wheat; experiment: as above; set-up: key: 0 (no harm); 9 (complete withered)
Procedure, shortened: as §3

[7] = tested on: soybean; experiment: as above; set-up: key: 0 (no harm); 9 (complete withered)
Procedure, shortened: as §3

[8] = tested on: indian jointvetch; experiment: Herbicidal activity test against upland field weeds (foliar treatment test); conditions: 50 g ai/ha, scale 0-100
Procedure, shortened: as §2

[9] = tested on: velvetleaf; experiment: as above; set-up: key to Foliar treatment herbicidal activity, velvet leaf: 0 (no control); 100 (complete control); conditions: 50 g ai/ha; for pest or weed control at 50 g/ha: Abutilon theophrasti, scale 0-100, read-out: Foliar treatment herbicidal activity, velvet leaf
Procedure, shortened: as §2

[10] = tested on: barnyard grass; experiment: Herbicidal activity test against upland field weeds (soil treatment test); set-up: key to Soil treatment herbicidal activity, barnyard grass: 0 (no control); 100 (complete control); conditions: 50 g ai/ha, scale 0 (no control) to 100 (complete control); for pest or weed control at 50 g/ha: Echinochloa crus-galli
Procedure, shortened: as §1

[11] = tested on: velvetleaf; experiment: as above; set-up: key to Soil treatment herbicidal activity, velvet leaf: 0 (no control); 100 (complete control); conditions: 50 g ai/ha, scale 0 (no control) to 100 (complete control)
Procedure, shortened: as §1

[12] = tested on: quack grass; experiment: as above; set-up: key to Soil treatment herbicidal activity, quack grass: 0 (no control); 100 (complete control); conditions: 50 g ai/ha, scale 0 (no control) to 100 (complete control)
Procedure, shortened: as §1

[13] = tested on: cocklebur; experiment: Herbicidal activity test against upland field weeds (foliar treatment test); set-up: key to Foliar treatment herbicidal activity, Cocklebur: 0 (no control); 100 (complete control); conditions: 50 g ai/ha, scale 0-100; for pest or weed control at 50 g/ha: Xanthium strumarium
Procedure, shortened: as §2

[14] = 50 g ai/ha, Rice (7 days after treatment)
[15] = 50 g ai/ha, Rice (14 days after treatment)
[16] = 100 g ai/ha, Rice (7 days after treatment)
[17] = 100 g ai/ha, Rice (14 days after treatment)
[18] = 50 g ai/ha, Cotton (7 days after treatment)
[19] = 50 g ai/ha, Cotton (14 days after treatment)
[20] = 100 g ai/ha, Cotton (7 days after treatment)
[21] = 100 g ai/ha, Cotton (14 days after treatment)
[22] = 50 g ai/ha, Corn (7 days after treatment)
[23] = 50 g ai/ha, Corn (14 days after treatment)
[24] = 100 g ai/ha, Corn (7 days after treatment)
[25] = 100 g ai/ha, Corn (14 days after treatment)
[26] = 50 g ai/ha, Wheat (7 days after treatment)
[27] = 50 g ai/ha, Wheat (14 days after treatment)
[28] = 100 g ai/ha, Wheat (7 days after treatment)
[29] = 100 g ai/ha, Wheat (14 days after treatment)
[30] = 50 g ai/ha, Soybean (7 days after treatment)
[31] = 50 g ai/ha, Soybean (14 days after treatment)
[32] = 100 g ai/ha, Soybean (7 days after treatment)
[33] = 100 g ai/ha, Soybean (14 days after treatment)

SMILES: Cn1nnc(COCc2nc(C(F)(F)F)ccc2C(=O)N(C(=O)c2ccccc2)c2nnnn2C)n1 [Compound No. 2-68, N-benzoyl-N-(1-methyl-1H-tetrazol-5-yl)-2-(((2-methyl-2H-tetrazol-5-yl)methoxy)methyl)-6-(trifluoromethyl)nicotinamide]
- Soil treatment herbicidal activity, Bindweed [1]: 0
- Foliar treatment herbicidal activity, black nightshade [2]: 100
- Foliar treatment phytotoxicity, Rice [3, 14]: 6
- Foliar treatment phytotoxicity, Rice [3, 15]: 5
- Foliar treatment phytotoxicity, Rice [3, 16]: 6
- Foliar treatment phytotoxicity, Rice [3, 17]: 8
- Foliar treatment phytotoxicity, Cotton [4, 18]: 4
- Foliar treatment phytotoxicity, Cotton [4, 19]: 9
- Foliar treatment phytotoxicity, Cotton [4, 20]: 5
- Foliar treatment phytotoxicity, Cotton [4, 21]: 9
- Foliar treatment phytotoxicity, Corn [5, 22]: 4
- Foliar treatment phytotoxicity, Corn [5, 23]: 4
- Foliar treatment phytotoxicity, Corn [5, 24]: 6
- Foliar treatment phytotoxicity, Corn [5, 25]: 6
- Foliar treatment phytotoxicity, Wheat [6, 26]: 0
- Foliar treatment phytotoxicity, Wheat [6, 27]: 0
- Foliar treatment phytotoxicity, Wheat [6, 28]: 1
- Foliar treatment phytotoxicity, Wheat [6, 29]: 0
- Foliar treatment phytotoxicity, Soybean [7, 30]: 5
- Foliar treatment phytotoxicity, Soybean [7, 31]: 5
- Foliar treatment phytotoxicity, Soybean [7, 32]: 6
- Foliar treatment phytotoxicity, Soybean [7, 33]: 7
- pest or weed control at 50 g/ha [8]: 98%
- Foliar treatment herbicidal activity, velvet leaf ([9]; scale 0-100): 100
- pest or weed control at 50 g/ha [10]: 98%
- Soil treatment herbicidal activity, velvet leaf [11]: 100
- Soil treatment herbicidal activity, quack grass [12]: 0
- Foliar treatment herbicidal activity, Cocklebur [13]: 100

SMILES: Cn1nnnc1COc1nc(C(F)(F)F)ccc1C(=O)Nc1nnnn1C [Compound No. 1-1, N-(1-methyl-1H-tetrazol-5-yl)-2-((1-methyl-1H-tetrazol-5-yl)methoxy)-6-(trifluoromethyl)nicotinamide]
- Soil treatment herbicidal activity, Bindweed [1]: 0
- Foliar treatment herbicidal activity, black nightshade [2]: 100
- Foliar treatment phytotoxicity, Rice [3, 14]: 4
- Foliar treatment phytotoxicity, Rice [3, 15]: 8
- Foliar treatment phytotoxicity, Rice [3, 16]: 6
- Foliar treatment phytotoxicity, Rice [3, 17]: 9
- Foliar treatment phytotoxicity, Cotton [4, 18]: 3
- Foliar treatment phytotoxicity, Cotton [4, 19]: 0
- Foliar treatment phytotoxicity, Cotton [4, 20]: 3
- Foliar treatment phytotoxicity, Cotton [4, 21]: 7
- Foliar treatment phytotoxicity, Corn [5, 22]: 2
- Foliar treatment phytotoxicity, Corn [5, 23]: 2
- Foliar treatment phytotoxicity, Corn [5, 24]: 4
- Foliar treatment phytotoxicity, Corn [5, 25]: 4
- Foliar treatment phytotoxicity, Wheat [6, 26]: 1
- Foliar treatment phytotoxicity, Wheat [6, 27]: 1
- Foliar treatment phytotoxicity, Wheat [6, 28]: 3
- Foliar treatment phytotoxicity, Wheat [6, 29]: 2
- Foliar treatment phytotoxicity, Soybean [7, 30]: 7
- Foliar treatment phytotoxicity, Soybean [7, 31]: 0
- Foliar treatment phytotoxicity, Soybean [7, 32]: 8
- Foliar treatment phytotoxicity, Soybean [7, 33]: 9
- pest or weed control at 50 g/ha [8]: 30%
- pest or weed control at 50 g/ha [9]: 98%
- pest or weed control at 50 g/ha [10]: 95%
- Soil treatment herbicidal activity, velvet leaf [11]: 100
- Soil treatment herbicidal activity, quack grass [12]: 0
- Foliar treatment herbicidal activity, Cocklebur [13]: 100

SMILES: Cn1nnc(COCc2nc(C(F)(F)F)ccc2C(=S)Nc2nnnn2C)n1 [Compound No. 2-106, N-(1-methyl-1H-tetrazol-5-yl)-2-(((2-methyl-2H-tetrazol-5-yl)methoxy)methyl)-6-(trifluoromethyl)pyridin-3-carbothioamide]
- pest or weed control at 50 g/ha [1]: 98%
- pest or weed control at 50 g/ha ([2]; Solanum nigrum): 95%
- Foliar treatment phytotoxicity, Rice [3, 14]: 6
- Foliar treatment phytotoxicity, Rice [3, 15]: 7
- Foliar treatment phytotoxicity, Rice [3, 16]: 6
- Foliar treatment phytotoxicity, Rice [3, 17]: 8
- Foliar treatment phytotoxicity, Cotton [4, 18]: 5
- Foliar treatment phytotoxicity, Cotton [4, 19]: 9
- Foliar treatment phytotoxicity, Cotton [4, 20]: 5
- Foliar treatment phytotoxicity, Cotton [4, 21]: 9
- Foliar treatment phytotoxicity, Corn [5, 22]: 5
- Foliar treatment phytotoxicity, Corn [5, 23]: 4
- Foliar treatment phytotoxicity, Corn [5, 24]: 6
- Foliar treatment phytotoxicity, Corn [5, 25]: 7
- Foliar treatment phytotoxicity, Wheat [6, 26]: 0
- Foliar treatment phytotoxicity, Wheat [6, 27]: 0
- Foliar treatment phytotoxicity, Wheat [6, 28]: 0
- Foliar treatment phytotoxicity, Wheat [6, 29]: 0
- Foliar treatment phytotoxicity, Soybean [7, 30]: 5
- Foliar treatment phytotoxicity, Soybean [7, 31]: 8
- Foliar treatment phytotoxicity, Soybean [7, 32]: 6
- Foliar treatment phytotoxicity, Soybean [7, 33]: 8
- pest or weed control at 50 g/ha [8]: 80%
- pest or weed control at 50 g/ha [9]: 95%
- Soil treatment herbicidal activity, barnyard grass [10]: 100
- Soil treatment herbicidal activity, velvet leaf [11]: 100
- Soil treatment herbicidal activity, quack grass [12]: 0
- pest or weed control at 50 g/ha [13]: 95%

SMILES: Cn1nnnc1NC(=O)c1ccc(C(F)(F)F)nc1OCc1nnnn1C(F)F [Compound No. 1-26, 2-((1-(difluoromethyl)-1H-tetrazol-5-yl)methoxy)-N-(1-methyl-1H-tetrazol-5-yl)-6-(trifluoromethyl)nicotinamide]
- Soil treatment herbicidal activity, Bindweed [1]: 0
- Foliar treatment herbicidal activity, black nightshade [2]: 100
- Foliar treatment phytotoxicity, Rice [3, 14]: 3
- Foliar treatment phytotoxicity, Rice [3, 15]: 6
- Foliar treatment phytotoxicity, Rice [3, 16]: 4
- Foliar treatment phytotoxicity, Rice [3, 17]: 7
- Foliar treatment phytotoxicity, Cotton [4, 18]: 2
- Foliar treatment phytotoxicity, Cotton [4, 19]: 6
- Foliar treatment phytotoxicity, Cotton [4, 20]: 4
- Foliar treatment phytotoxicity, Cotton [4, 21]: 9
- Foliar treatment phytotoxicity, Corn [5, 22]: 1
- Foliar treatment phytotoxicity, Corn [5, 23]: 0
- Foliar treatment phytotoxicity, Corn [5, 24]: 2
- Foliar treatment phytotoxicity, Corn [5, 25]: 2
- Foliar treatment phytotoxicity, Wheat [6, 26]: 0
- Foliar treatment phytotoxicity, Wheat [6, 27]: 0
- Foliar treatment phytotoxicity, Wheat [6, 28]: 1
- Foliar treatment phytotoxicity, Wheat [6, 29]: 2
- Foliar treatment phytotoxicity, Soybean [7, 30]: 5
- Foliar treatment phytotoxicity, Soybean [7, 31]: 5
- Foliar treatment phytotoxicity, Soybean [7, 32]: 5
- Foliar treatment phytotoxicity, Soybean [7, 33]: 5
- pest or weed control at 50 g/ha [8]: 70%
- pest or weed control at 50 g/ha [9]: 50%
- Soil treatment herbicidal activity, barnyard grass [10]: 100
- Soil treatment herbicidal activity, velvet leaf [11]: 100
- Soil treatment herbicidal activity, quack grass [12]: 0
- pest or weed control at 50 g/ha [13]: 70%

SMILES: Cn1ncnc1COc1nc(C(F)(F)F)ccc1C(=O)Nc1nnnn1C [Compound No. 1-45, 2-((1-methyl-1H-1,2,4-triazol-5-yl)methoxy)-N-(1-methyl-1H-tetrazol-5-yl)-6-(trifluoromethyl)nicotinamide]
- Soil treatment herbicidal activity, Bindweed [1]: 0
- Foliar treatment herbicidal activity, black nightshade [2]: 100
- Foliar treatment phytotoxicity, Rice [3, 14]: 6
- Foliar treatment phytotoxicity, Rice [3, 15]: 9
- Foliar treatment phytotoxicity, Rice [3, 16]: 6
- Foliar treatment phytotoxicity, Rice [3, 17]: 9
- Foliar treatment phytotoxicity, Cotton [4, 18]: 5
- Foliar treatment phytotoxicity, Cotton [4, 19]: 9
- Foliar treatment phytotoxicity, Cotton [4, 20]: 5
- Foliar treatment phytotoxicity, Cotton [4, 21]: 9
- Foliar treatment phytotoxicity, Corn [5, 22]: 1
- Foliar treatment phytotoxicity, Corn [5, 23]: 0
- Foliar treatment phytotoxicity, Corn [5, 24]: 3
- Foliar treatment phytotoxicity, Corn [5, 25]: 2
- Foliar treatment phytotoxicity, Wheat [6, 26]: 0
- Foliar treatment phytotoxicity, Wheat [6, 27]: 0
- Foliar treatment phytotoxicity, Wheat [6, 28]: 0
- Foliar treatment phytotoxicity, Wheat [6, 29]: 0
- Foliar treatment phytotoxicity, Soybean [7, 30]: 6
- Foliar treatment phytotoxicity, Soybean [7, 31]: 7.5
- Foliar treatment phytotoxicity, Soybean [7, 32]: 7
- Foliar treatment phytotoxicity, Soybean [7, 33]: 9
- pest or weed control at 50 g/ha [8]: 70%
- pest or weed control at 50 g/ha [9]: 80%
- pest or weed control at 50 g/ha [10]: 98%
- Soil treatment herbicidal activity, velvet leaf [11]: 100
- Soil treatment herbicidal activity, quack grass [12]: 0
- pest or weed control at 50 g/ha [13]: 95%
